pIC50: −log10 of the molar value.
Each molecule was assayed on HIF-2α transcriptional activity (assay: Hypoxia-responsive element-driven luciferase (HRE-Luc) screen). Conditions: 786-0 ccRCC cells stably expressing HRE-Luc; 24 h treatment; range of IC50 values.
Type: cell-based, human
Method: Screens for inhibitory activity of compounds described herein were performed using 786-0 ccRCC cells that stably express HRE-Luc: 5 copies of the hypoxia-responsive element (HRE) fused to the pGL3 luciferase reporter (Promega Corp, Madison WI). 786-0 cells are pVHL deficient and thus constitutively express HIF-2α independently of cellular oxygen tension. Since 786-0 cells lack HIF-1α, HRE-driven luciferase activity is primarily HIF-2α driven, and has been previously validated. Cells were maintained at log phase growth in […] (DMEM) with 10% FBS in a humidified incubator at 37° C. with 5% CO2. For screening assays, cells were seeded at a density of 4,000 cells in 50 μl of complete media/well in quadruplicate wells/point in a 96-well plate. After 24 h, 50 μl of a 2× concentration of test compound was added to each well. Compounds were diluted from a 5-10 mM stock in DMSO and final concentrations of DMSO in each well in controls and treated wells were kept constant at ≤0.6% DMSO. After 24 h treatment, luciferase activity was measured using the Steady-Glo Luciferase assay system (Promega Corp) according to the manufacturer's protocol. Cell viability was measured in quadruplicate parallel wells using resazurin as recommended by the manufacturer (R&D systems, Minneapolis, MN). Data for luciferase and resazurin were normalized to DMSO treated controls (defining 100%) and wells containing assay reagent but no cells (defining 0%) and graphed using the log inhibitor versus normalized response option in Graphpad Prism 9.3.1 software. Representative data determined using Steady-Glo luciferase and resazurin are shown in FIGS. 1A and 1B respectively, with error bars showing SD. Filled diamonds, empty squares and empty triangles indicate treatment with 3, 8 and 22 respectively with results for HRE-Luc shown in FIG. 1A.

| SMILES | pIC50 |
| --- | --- |
| COc1cccc2nc(Nc3nnc(C4CCC(OC)CC4)o3)[nH]c12 (single isomer, unassigned) [Compound 75-isomer-2, N-(7-methoxy-1H-benzo[d]imidazol-2-yl)-5-(4-methoxycyclohexyl)-1,3,4-oxadiazol-2-amine] | 4.30 to 5.00 |
| COc1ccc(-c2nnc(Nc3nc4c(Cl)nccc4[nH]3)o2)cc1 [Compound 23, N-(4-chloro-1H-imidazo[4,5-c]74yridine-2-yl)-5-(4-methoxyphenyl)-1,3,4-oxadiazol-2-amine] | 4.30 to 5.00 |

Same assay, conditions: Homo sapiens, 786-0, 24 h, 786-0 ccRCC cells stably expressing HRE-Luc; 24 h treatment; range of IC50 values

| SMILES | pIC50 |
| --- | --- |
| COc1nccc2[nH]c(Nc3nnc(-c4ccc(C)cc4)o3)nc12 [Compound 29, N-(4-methoxy-1H-imidazo[4,5-c]pyridin-2-yl)-5-(p-tolyl)-1,3,4-oxadiazol-2-amine] | > 5.00 |
| COc1cccc2[nH]c(Nc3nnc(N4CCN(C)CC4)o3)nc12 [Compound 73, N-(4-methoxy-1H-benzo[d]imidazol-2-yl)-5-(4-methylpiperazin-1-yl)-1,3,4-oxadiazol-2-amine] | 4.00 to 4.30 |
| Fc1ccc(-c2nnc(Nc3nc4cnc(N5CCOCC5)cc4[nH]3)o2)cc1 [Compound 10, 5-(4-Fluorophenyl)-N-(6-morpholino-1H-imidazo[4,5-c]pyridin-2-yl)-1,3,4-oxadiazol-2-amine] | 4.30 to 5.00 |
| COc1ccc(-c2nnc(Nc3nc4c(OC)nc(C)cc4[nH]3)o2)cc1OC [Compound 55, 5-(3,4-dimethoxyphenyl)-N-(4-methoxy-6-methyl-1H-imidazo[4,5-c]pyridin-2-yl)-1,3,4-oxadiazol-2-amine] | > 5.00 |
| COc1cccc2nc(Nc3nnc(C4CCN(C)CC4)o3)[nH]c12 [Compound 74, N-(7-methoxy-1H-benzo[d]imidazol-2-yl)-5-(1-methylpiperidin-4-yl)-1,3,4-oxadiazol-2-amine] | 4.30 to 5.00 |
| COc1ccc(-c2nnc(Nc3nc4c(OC)nccc4[nH]3)o2)cc1F [Compound 33, 5-(3-Fluoro-4-methoxyphenyl)-N-(4-methoxy-1H-imidazo[4,5-c]pyridin-2-yl)-1,3,4-oxadiazol-2-amine] | < 5.00 |
| COc1ccc2nc(Nc3nnc(-c4ccc(F)cc4)o3)sc2n1 [Compound 9, 5-(4-Fluorophenyl)-N-(5-methoxythiazolo[5,4-b]pyridin-2-yl)-1,3,4-oxadiazol-2-amine] | 4.00 to 4.30 |
| Fc1ccc(-c2nnc(Nc3nc4ccnc(N5CCOCC5)c4[nH]3)o2)cc1 [Compound 17, 5-(4-Fluorophenyl)-N-(4-morpholino-3H-imidazo[4,5-c]pyridin-2-yl)-1,3,4-oxadiazol-2-amine] | 4.30 to 5.00 |
| COc1nccc2[nH]c(Nc3nnc(-c4ccc(C(F)(F)F)cc4)o3)nc12 [Compound 20, N-(4-methoxy-1H-imidazo[4,5-c]pyridin-2-yl)-5-(4-(trifluoromethyl)phenyl)-1,3,4-oxadiazol-2-amine] | 4.30 to 5.00 |
| CCOc1ccc(-c2nnc(Nc3nc4c(OC)cccc4[nH]3)o2)cc1OCC [Compound 88, 5-(3,4-diethoxyphenyl)-N-(4-methoxy-1H-benzo[d]imidazol-2-yl)-1,3,4-oxadiazol-2-amine] | < 4.00 |
| Fc1ccc(-c2nnc(Nc3nc4cnc(C(F)(F)F)cc4[nH]3)o2)cc1 [Compound 6, 5-(4-Fluorophenyl)-N-(6-(trifluoromethyl)-1H-imidazo[4,5-c]pyridin-2-yl)-1,3,4-oxadiazol-2-amine] | 4.30 to 5.00 |
| COc1cccc2[nH]c(Nc3nnc(-c4ccc5occc5c4)o3)nc12 [Compound 89, 5-(benzofuran-5-yl)-N-(4-methoxy-1H-benzo[d]imidazol-2-yl)-1,3,4-oxadiazol-2-amine] | < 4.00 |
| COc1ccc(-c2nnc(Nc3nc4c(OC)cccc4[nH]3)o2)c(C)c1 [Compound 83, N-(4-methoxy-1H-benzo[d]imidazol-2-yl)-5-(4-methoxy-2-methylphenyl)-1,3,4-oxadiazol-2-amine] | < 4.00 |
| COc1nccc2[nH]c(Nc3nnc(-c4ccc(C#N)cc4)o3)nc12 [Compound 32, 4-(5-((4-Methoxy-1H-imidazo[4,5-c]pyridin-2-yl)amino)-1,3,4-oxadiazol-2-yl) benzonitrile] | < 5.00 |
| COc1cccc2nc(Nc3nnc(N4CCOCC4)o3)[nH]c12 [Compound 72, N-(7-methoxy-1H-benzo[d]imidazol-2-yl)-5-morpholino-1,3,4-oxadiazol-2-amine] | 4.30 to 5.00 |
| COc1cccc2nc(Nc3nnc(C4C[C@H]5CC[C@@H]4C5)o3)[nH]c12 (stereo partly drawn) [Compound 96, 5-((1R,4S)-bicyclo[2.2.1]heptan-2-yl)-N-(7-methoxy-1H-benzo[d]imidazol-2-yl)-1,3,4-oxadiazol-2-amine] | 4.30 to 5.00 |
| COc1nccc2[nH]c(Nc3nnc(-c4ccc(N(C)C)cc4)o3)nc12 [Compound 28, N-(4-Methoxy-1H-imidazo[4,5-c]pyridin-2-yl)-5-(4-(dimethylamino)phenyl)-1,3,4-oxadiazol-2-amine] | > 5.00 |

| SMILES | pIC50 |
| --- | --- |
| COc1nccc2[nH]c(Nc3nnc(-c4ccc(OC(F)(F)F)cc4)o3)nc12 [Compound 21, N-(4-methoxy-1H-imidazo[4,5-c]pyridin-2-yl)-5-(4-(trifluoromethoxy)phenyl)-1,3,4-oxadiazol-2-amine] | 4.30 to 5.00 |
| COc1ccc(-c2nnc(Nc3nc4c(OC)nccc4[nH]3)o2)cc1OC [Compound 26, N-(4-Methoxy-1H-imidazo[4,5-c]pyridin-2-yl)-5-(3,4-dimethoxyphenyl)-1,3,4-oxadiazol-2-amine] | > 5.00 |
| COc1ccc(-c2csc(Nc3nc4c(OC)nc(C)cc4[nH]3)n2)cc1C#N [Compound 53, 2-Methoxy-5-(2-((4-methoxy-6-methyl-1H-imidazo[4,5-c]pyridin-2-yl)amino)thiazol-4-yl)benzonitrile] | < 4.00 |
| Cc1cncc2nc(Nc3nnc(-c4ccc(F)cc4)o3)[nH]c12 [Compound 7, 5-(4-Fluorophenyl)-N-(7-methyl-1H-imidazo[4,5-c]pyridin-2-yl)-1,3,4-oxadiazol-2-amine] | 4.30 to 5.00 |
| COc1cccc2nc(Nc3nnc(N4CCC(OC)CC4)o3)[nH]c12 [Compound 71, N-(7-methoxy-1H-benzo[d]imidazol-2-yl)-5-(4-methoxypiperidin-1-yl)-1,3,4-oxadiazol-2-amine] | > 5.00 |
| COc1ccc(-c2nnc(Nc3nc4cccc(OC)c4[nH]3)o2)cc1 [Compound 82, N-(7-methoxy-1H-benzo[d]imidazol-2-yl)-5-(4-methoxyphenyl)-1,3,4-oxadiazol-2-amine] | 4.30 to 5.00 |
| COc1nccc2[nH]c(Nc3nnc([C@H]4CC[C@H](OC)CC4)o3)nc12 [Compound 63, N-(4-methoxy-1H-imidazo[4,5-c]pyridin-2-yl)-5-((1r,4r)-4-methoxycyclohexyl)-1,3,4-oxadiazol-2-amine] | > 5.00 |
| COc1cccc2[nH]c(Nc3nnc(-c4ccc5c(c4)OCCO5)o3)nc12 [Compound 86, 5-(2,3-dihydrobenzo[b][1,4]dioxin-6-yl)-N-(4-methoxy-1H-benzo[d]imidazol-2-yl)-1,3,4-oxadiazol-2-amine] | 4.00 to 4.30 |
| COc1nccc2nc(Nc3nnc(C4CCN(C)CC4)o3)[nH]c12 [Compound 64, N-(4-methoxy-3H-imidazo[4,5-c]pyridin-2-yl)-5-(1-methylpiperidin-4-yl)-1,3,4-oxadiazol-2-amine] | > 5.00 |
| COc1ccc(-c2nnc(Nc3nc4c(OC)nccc4[nH]3)o2)cn1 [Compound 39, N-(4-Methoxy-1H-imidazo[4,5-c]pyridin-2-yl)-5-(6-methoxypyridin-3-yl)-1,3,4-oxadiazol-2-amine] | > 5.00 |
| COc1nc(C)cc2[nH]c(Nc3nnc([C@H]4CC[C@@H](OC)CC4)o3)nc12 [Compound 100, N-(4-methoxy-6-methyl-1H-imidazo[4,5-c]pyridin-2-yl)-5-((1s,4s)-4-methoxycyclohexyl)-1,3,4-oxadiazol-2-amine] | > 5.00 |
| COc1nccc2[nH]c(Nc3nnc(-c4ccc(OC5CC5)cc4)o3)nc12 [Compound 41, 5-(4-Cyclopropoxyphenyl)-N-(4-methoxy-1H-imidazo[4,5-c]pyridin-2-yl)-1,3,4-oxadiazol-2-amine] | > 5.00 |
| COc1nccc2[nH]c(Nc3nnc([C@H]4CC[C@@H](OC)CC4)o3)nc12 [Compound 62, N-(4-methoxy-1H-imidazo[4,5-c]pyridin-2-yl)-5-((1s,4s)-4-methoxycyclohexyl)-1,3,4-oxadiazol-2-amine] | > 5.00 |
| Fc1ccc(-c2nnc(Nc3nc4cnc(Cl)nc4[nH]3)o2)cc1 [Compound 14, N-(2-Chloro-9H-purin-8-yl)-5-(4-fluorophenyl)-1,3,4-oxadiazol-2-amine] | 4.30 to 5.00 |
| COc1cccc(-c2nccc3nc(Nc4nnc(-c5ccc(F)cc5)o4)[nH]c23)c1 [Compound 19, 5-(4-Fluorophenyl)-N-(4-(3-methoxyphenyl)-3H-imidazo[4,5-c]pyridin-2-yl)-1,3,4-oxadiazol-2-amine] | 4.00 to 4.30 |
| COc1cccc2[nH]c(Nc3nnc(N4C[C@H](C)C[C@H](C)C4)o3)nc12 [Compound 92, 5-((3R,5S)-3,5-dimethylpiperidin-1-yl)-N-(4-methoxy-1H-benzo[d]imidazol-2-yl)-1,3,4-oxadiazol-2-amine] | < 4.00 |

Reference: patent publication US20250346588A1, “IMIDAZOPYRIDINE AND OXAZOLOPYRIDINE DERIVATIVES AND ANALOGS THEREOF, METHODS OF PREPARATION THEREOF, METHODS OF HIF-1/2A PATHWAY INHIBITION, AND INDUCTION OF FERROPTOSIS” (KUDA THERAPEUTICS, INC., priority 2022, published 2025)
